Measured values reported in publication PMC6267478, “Heterologous Expression of a Thermostable β-1,3-Galactosidase and Its Potential in Synthesis of Galactooligosaccharides” (Marine Drugs, 2018).

System: T1, rMaBGA (recombinant β-1,3-galactosidase MaBGA)
T1 construct: full-length ORF in pET-22b(+) NdeI/XhoI, 6xHis tag (C-terminal by vector and primer design), E. coli BL21(DE3), IMAC + SEC, 66 kDa on SDS-PAGE; primers imply N-terminus MKLGVCYY and native C-terminus AIWQEI before LE-His tag
Assay: ONP release at […] nm, nonlinear Michaelis-Menten fit
Type: biochemical, Marinomonas sp. BSi20414
Conditions: 50 mM PBS pH 7.0, 37 °C (general activity assay); 0.25-5 mM ONPG

Km: 6.85 mM
SMILES: O=[N+]([O-])c1ccccc1O[C@@H]1O[C@H](CO)[C@H](O)[C@H](O)[C@H]1O [ONPG]
